Earlier results as cited in US9968555B2, “Liposomal formulations that form drug nanocrystals after freeze-thaw” (ARADIGM CORPORATION, priority 2014, dated 2018).
≈ marks a conversion by molar mass, not a printed value.

Tested on: M. avium

SMILES: O=C(O)c1cn(C2CC2)c2cc(N3CCNCC3)c(F)cc2c1=O [ciprofloxacin]
- minimum inhibitory concentration (MIC): 5 µg/mL (≈ 15.1 µM)
